Reference: patent publication US9512075B2 (OKAYAMA UNIVERSITY, priority 2012, dated 2016)
In brackets after ≈: the same amount, converted by molar mass. Read-outs that look alike come from different tables or passages of the source.

How the values were obtained:
Format in all cases: cell-based
[1] = test system: Staphylococcus aureus Smith strain; assay: MIC for Staphylococcus aureus Smith strain; settings: read-out: MIC Straphyrococcus aureus Smith
[2] = test system: Staphylococcus aureus 209P strain; assay: MIC for Staphylococcus aureus 209P strain; settings: Staphylococcus aureus; 209P strain; regular bouillon medium, 37° C. overnight, turbidity; read-out: MIC Straphyrococcus aureus 209P
[3] = test system: Staphylococcus aureus MRSA No. 17 (methicillin-resistant Staphylococcus aureus: MRSA); assay: MIC for Staphylococcus aureus MRSA No. 17; settings: read-out: MIC Straphyrococcus aureus MRSA No. 17 (MRSA)
[4] = test system: Enterococcus faecalis 5038 strain; assay: MIC for Enterococcus faecalis 5038 strain; settings: read-out: MIC Enterococcus faecalis 5038
[5] = test system: Enterococcus faecalis NCTC12201 strain (vancomycin-resistant Enterococcus: VRE); assay: MIC for Enterococcus faecalis NCTC12201 strain (VRE); settings: read-out: MIC Enterococcus faecalis NCTC 12201 (VRE)
[6] = test system: Clostridium difficile JCM1296 strain; assay: microbe, parasite or virus in culture; settings: Clostridioides difficile, JCM1296, read-out: MIC Clostridium difficile JCM1296
[7] = test system: Clostridium perfringens PB6K strain; assay: microbe, parasite or virus in culture; settings: Clostridium perfringens, PB6KSTRAIN, read-out: MIC Clostridium perfringens PB6K, PB6K strain; CD medium, 37° C. overnight, 10% CO2-containing anaerobic conditions
[8] = test system: Escherichia coli K-12 strain; assay: MIC for Escherichia coli K-12 strain; settings: Escherichia coli, K12STRAIN; K-12 strain; regular bouillon medium, 37° C. overnight, turbidity; read-out: MIC Escherichia coli K12
[9] = test system: Escherichia coli BE1121 strain; assay: MIC for Escherichia coli BE1121 strain; settings: Escherichia coli, BE1121STRAIN; BE1121 strain; regular bouillon medium, 37° C. overnight, turbidity; read-out: MIC Escherichia coli BE1121
[10] = Smith strain, regular bouillon medium, 37° C. overnight, turbidity
[11] = MRSA No. 17, regular bouillon medium, 37° C. overnight, turbidity
[12] = 5038 strain, Heart Infusion Broth medium, 37° C. overnight, turbidity
[13] = NCTC12201 strain (VRE), Heart Infusion Broth medium, 37° C. overnight, turbidity

| Compound | MIC [1, 10] [µg/mL] | MIC [2] [µg/mL] | MIC [3, 11] [µg/mL] | MIC [4, 12] [µg/mL] | MIC [5, 13] [µg/mL] | MIC [6] [µg/mL] | MIC [7] [µg/mL] | MIC [8] [µg/mL] | MIC [9] [µg/mL] | MIC [1] [µg/mL] | MIC ([3]; MRSA) [µg/mL] | MIC ([4]; 5038STRAIN) [µg/mL] | MIC [5] [µg/mL] |
| --- | --- | --- | --- | --- | --- | --- | --- | --- | --- | --- | --- | --- | --- |
| CCCCCCCCCCOCC(=O)c1c(O)c2cc(Cl)ccc2oc1=O [B028, 3-decyloxyacetyl-6-chloro-4-hydroxycoumarin] | 8 (≈ 20.3 µM) | 128 (≈ 324 µM) | 256 (≈ 648 µM) | 256 (≈ 648 µM) | 256 (≈ 648 µM) | 0.25 (≈ 0.633 µM) | 0.25 (≈ 0.633 µM) | 256 (≈ 648 µM) | 256 (≈ 648 µM) |  |  |  |  |
| CCCCCCCCOCC(O)=C1C(=O)N(C(C)=O)c2ccccc21 [A057, N-acetyl-3-octyloxyacetyl-2-oxyindole] | 1 (≈ 2.89 µM) | 8 (≈ 23.2 µM) | 16 (≈ 46.3 µM) | 1 (≈ 2.89 µM) | 2 (≈ 5.79 µM) | 0.25 (≈ 0.724 µM) | 0.5 (≈ 1.45 µM) | 128 (≈ 371 µM) | 128 (≈ 371 µM) |  |  |  |  |
| CCCCCCCCCCSCC(O)=C1C(=O)N(C(=O)Nc2ccccc2)c2ccc(F)cc21 [A037, N-(phenylaminocarbonyl)-3-decylthioacetyl-5-fluoro-2-oxyindole] | 0.25 (≈ 0.516 µM) | 2 (≈ 4.13 µM) | 2 (≈ 4.13 µM) | 0.5 (≈ 1.03 µM) | 0.5 (≈ 1.03 µM) | 0.5 (≈ 1.03 µM) | 1 (≈ 2.06 µM) | 256 (≈ 528 µM) | 256 (≈ 528 µM) |  |  |  |  |
| CCCCc1ccc(COCC(=O)c2c(O)c3ccccc3oc2=O)cc1 [B024, 3-(4-butylphenylmethoxyl)acetyl-4-hydroxycoumarin] |  | 4 (≈ 10.9 µM) |  |  |  | 0.25 (≈ 0.682 µM) | 1 (≈ 2.73 µM) | 256 (≈ 699 µM) | 2 (≈ 5.46 µM) | 8 (≈ 21.8 µM) | 64 (≈ 175 µM) | 2 (≈ 5.46 µM) | 2 (≈ 5.46 µM) |
| CCCCCCCCCC(O)=C1C(=O)N(C(=O)Nc2ccc(OC(F)(F)F)cc2)c2ccccc21 [A053, N-(4-(trifluoromethoxy)phenylaminocarbonyl)-3-decanoyl-2-oxyindole] | 256 (≈ 522 µM) | 256 (≈ 522 µM) | 256 (≈ 522 µM) | 128 (≈ 261 µM) | 128 (≈ 261 µM) | 16 (≈ 32.6 µM) | 32 (≈ 65.2 µM) | 128 (≈ 261 µM) | 128 (≈ 261 µM) |  |  |  |  |
| CCCCCCCCOCC(=O)c1c(O)c2ccccc2oc1=O [B030, 3-octyloxyacetyl-4-hydroxycoumarin] |  | 4 (≈ 12 µM) |  |  |  | 0.25 (≈ 0.752 µM) | 0.25 (≈ 0.752 µM) | 128 (≈ 385 µM) | 2 (≈ 6.02 µM) | 2 (≈ 6.02 µM) | 1 (≈ 3.01 µM) | 2 (≈ 6.02 µM) | 4 (≈ 12 µM) |
| CCCCCCCCCCOCC(=O)c1c(O)c2cc(C)ccc2oc1=O [B029, 3-decyloxyacetyl-6-methyl-4-hydroxycoumarin] | 4 (≈ 10.7 µM) | 256 (≈ 684 µM) | 256 (≈ 684 µM) | 8 (≈ 21.4 µM) | 2 (≈ 5.34 µM) | < 0.125 | < 0.125 | 256 (≈ 684 µM) | 256 (≈ 684 µM) |  |  |  |  |
| CCCCCCCCCC(=O)N1C(=O)C(=C(C)O)c2ccccc21 [A022, N-decanoyl-3-acetyl-2-oxyindole] | 2 (≈ 6.07 µM) | 8 (≈ 24.3 µM) | 4 (≈ 12.1 µM) | 1 (≈ 3.04 µM) | 1 (≈ 3.04 µM) | 0.25 (≈ 0.759 µM) | 4 (≈ 12.1 µM) | 128 (≈ 389 µM) | 16 (≈ 48.6 µM) |  |  |  |  |
| CCCCCCCCCC(=O)N1C(=O)C(=C(O)CCCCCCCCC)c2ccccc21 [A005, 1,3-didecanoyl-2-oxyindole] | 64 (≈ 145 µM) | 32 (≈ 72.5 µM) | 32 (≈ 72.5 µM) | 32 (≈ 72.5 µM) | 32 (≈ 72.5 µM) | 2 (≈ 4.53 µM) | 16 (≈ 36.2 µM) | 128 (≈ 290 µM) | 128 (≈ 290 µM) |  |  |  |  |
